Like-named read-outs stand apart in the source and are kept apart here. Bounds are passed on as bounds.

40 compounds from patent US20090306149A1, “USE OF BIARYLCARBOXAMIES IN THE TREATMENT OF HEDGEHOG PATHWAY-RELATED DISORDERS” (priority 2006, published 2009) can be followed below.

Assay [1] concerns the target Smoothened (Homo sapiens, UniProt Q99835). Description: Smo binding assay, displacement of a small molecule agonist of Smoothened, filter binding format. From the text: A Smo binding assay was developed using radio-labeled smoothened agonist for compound competition.
Table 1, infra; lists the IC50 for displacement of a small molecule agonist of Smoothened determined in a filter binding format.

Assay [2] deals with gli-luciferase activity (Hh pathway) in TMHh12 cells. Description: "IC50 shift" gli-luciferase reporter assay in TMHh12 cells with a small molecule Smo agonist. The assay is classed as cell-based, mouse. On the procedure: TM3 cells (mouse) transfected with a new proprietary reporter construct (pTA-8xGli-Luc). The pTA-8xGli-Luc reporter produces approx. 4 fold more luciferase activity than classical 8xGli-LUC. A highly responsive stable clone has been selected (TMHh12) with >10-fold signal/noise ratio and <10% CV in 384 well format.
“IC50 shift” assays in TMHh12 cells. IC50 for antagonism of gli-luciferase activity was tested in the presence of increasing concentrations of a small molecule agonist which binds to Smo with 1 nM affinity and activates the Hh pathway.
Table 1 lists the IC50 of antagonists determined in the presence of different (1 nM and 25 nM) concentrations of a small agonist of Smoothened.

The mark [3] stands for this setting: Mus musculus, TMHh12, TMHh12 cells, 1 nM small molecule Smo agonist, read-out: Gli_luc (1 nM Smo agonist) IC50.
Setting [4] is: Mus musculus, TMHh12, TMHh12 cells, 25 nM small molecule Smo agonist, read-out: Gli_luc (25 nM Smo agonist) IC50.

Chain of Smoothened (Q99835 28-787): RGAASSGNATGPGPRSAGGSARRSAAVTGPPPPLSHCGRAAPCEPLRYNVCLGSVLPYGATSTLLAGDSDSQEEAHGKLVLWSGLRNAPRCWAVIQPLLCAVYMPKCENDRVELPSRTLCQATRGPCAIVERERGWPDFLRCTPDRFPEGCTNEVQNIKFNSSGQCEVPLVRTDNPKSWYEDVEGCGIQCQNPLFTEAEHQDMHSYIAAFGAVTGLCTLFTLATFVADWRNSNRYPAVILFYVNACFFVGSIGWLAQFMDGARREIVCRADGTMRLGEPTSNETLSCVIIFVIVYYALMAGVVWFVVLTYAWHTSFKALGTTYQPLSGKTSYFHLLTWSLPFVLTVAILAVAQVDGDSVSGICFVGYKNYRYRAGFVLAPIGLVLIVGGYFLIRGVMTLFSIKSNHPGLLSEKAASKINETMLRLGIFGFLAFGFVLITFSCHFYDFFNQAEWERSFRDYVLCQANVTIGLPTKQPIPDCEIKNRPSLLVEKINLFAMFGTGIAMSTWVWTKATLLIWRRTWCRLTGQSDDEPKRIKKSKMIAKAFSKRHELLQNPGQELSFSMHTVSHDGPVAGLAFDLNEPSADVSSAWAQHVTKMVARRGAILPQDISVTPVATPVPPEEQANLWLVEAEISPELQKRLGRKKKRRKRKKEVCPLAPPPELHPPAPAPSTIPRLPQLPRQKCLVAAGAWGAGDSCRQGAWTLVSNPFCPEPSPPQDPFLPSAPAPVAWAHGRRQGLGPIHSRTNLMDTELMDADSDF

The IC50 is the concentration needed to halve the response being measured. Consider `Cc1cccc(C(=O)Nc2ccc3c(c2)C[C@@H](NCc2cccn2C)C3)c1-c1ccc(C(F)(F)F)cc1` [Example 15], for which the IC50 in assay [1] is 0.018 µM; in assay [2] (setting [3]) it was under 0.005 µM; in assay [2] (setting [4]), 0.479 µM.

For `Cc1cccc(C(=O)Nc2ccc3c(c2)CC(NS(=O)(=O)c2ccc(Cl)s2)C3)c1-c1ccc(C(F)(F)F)cc1` (stereo not shown) [Example 85], in assay [1], the IC50 stood at 0.012 µM.

Regarding `COc1ccc(CN[C@H]2Cc3ccc(NC(=O)c4cccc(C)c4-c4ccc(C(F)(F)F)cc4)cc3C2)cn1` [Example 32], the IC50 in assay [1] is 0.13 µM; in assay [2] (setting [3]), 0.261 µM; in assay [2] (setting [4]) it was 2.86 µM.

With `Cc1cccc(C(=O)Nc2ccc3c(c2)C[C@@H](NCc2ncc[nH]2)C3)c1-c1ccc(C(F)(F)F)cc1` [Example 17], the IC50 in assay [2] (setting [3]) was found to be 1.37 µM; in assay [2] (setting [4]), 15.5 µM.

Regarding `Cc1cccc(C(=O)Nc2ccc3c(c2)CC(NCC2CCCCC2)C3)c1-c1ccc(C(F)(F)F)cc1` (stereo not shown) [Example 50], the IC50 in assay [1] came to 0.621 µM; in assay [2] (setting [3]), 0.901 µM; in assay [2] (setting [4]), 11.9 µM.

Regarding `CN(C)CC(=O)NC1Cc2ccc(NC(=O)c3ccccc3-c3ccc(C(F)(F)F)cc3)cc2C1` (stereo not shown) [Example 77], the results for the IC50 in assay [2] (setting [3]) and in assay [2] (setting [4]) were 1.41 µM and 12.4 µM, respectively.

Consider `CCCS(=O)(=O)NC1Cc2ccc(NC(=O)c3cccc(C)c3-c3ccc(C(F)(F)F)cc3)cc2C1` (stereo not shown) [Example 93], for which the IC50 in assay [2] (setting [3]) is 3.39 µM.

Consider `Cc1cccc(C(=O)Nc2ccc3c(c2)CC(NS(=O)(=O)c2cccs2)C3)c1-c1ccc(C(F)(F)F)cc1` (stereo not shown) [Example 95], for which the IC50 in assay [2] (setting [3]) came out at 1.42 µM.

In the case of `Cc1cccc(C(=O)Nc2ccc3c(c2)C[C@@H](NCc2nccn2C)C3)c1-c1ccc(C(F)(F)F)cc1` [Example 18], the IC50 was 0.039 µM in assay [2] (setting [3]) and 0.876 µM in assay [2] (setting [4]).

For the compound `O=C(Nc1ccc2c(c1)CC(NCc1ccccn1)C2)c1cccc(C(F)(F)F)c1-c1ccc(C(F)(F)F)cc1` (stereo not shown) [Example 37], the IC50 in assay [2] (setting [3]) amounted to 2.98 µM; in assay [2] (setting [4]) it was 11 µM.

With `O=C(Nc1ccc2c(c1)CC(NS(=O)(=O)c1cccs1)C2)c1ccc(F)cc1-c1ccc(C(F)(F)F)cc1` (stereo not shown) [Example 90], in assay [2] (setting [3]), the IC50 was 5.44 µM.

For the compound `O=C(Nc1ccc2c(c1)CC(NS(=O)(=O)c1cccs1)C2)c1c(F)cccc1-c1ccc(C(F)(F)F)cc1` (stereo not shown) [Example 97], in assay [2] (setting [3]), the IC50 turned out to be 1.36 µM.

`Cc1cccc(C(=O)Nc2ccc3c(c2)C[C@H](NC(=O)c2ccno2)C3)c1-c1ccc(C(F)(F)F)cc1` [Example 80]: the IC50 in assay [2] (setting [3]) turned out to be 3.27 µM.

For `Cc1cccc(C(=O)Nc2ccc3c(c2)CC(NCc2cccs2)C3)c1-c1ccc(C(F)(F)F)cc1` (stereo not shown) [Example 52], the values for the IC50 in assay [2] (setting [3]) and in assay [2] (setting [4]) were 0.04 µM and 0.598 µM, respectively.

Regarding `CCOC(=O)N[C@H]1Cc2ccc(NC(=O)c3cccc(C)c3-c3ccc(C(F)(F)F)cc3)cc2C1` [Example 82], the figures for the IC50 in assay [2] (setting [3]) and in assay [2] (setting [4]) were 1.51 µM and 9.03 µM, respectively.

For `Cc1cccc(C(=O)Nc2ccc3c(c2)CC(NC(=O)c2ccccc2)C3)c1-c1ccc(C(F)(F)F)cc1` (stereo not shown) [Example 76], the figures for the IC50 in assay [2] (setting [3]) and in assay [2] (setting [4]) were 0.772 µM and 1.25 µM, respectively.

For `CCCCS(=O)(=O)NC1Cc2ccc(NC(=O)c3cccc(C)c3-c3ccc(C(F)(F)F)cc3)cc2C1` (stereo not shown) [Example 86], in assay [1], the IC50 stood at 0.265 µM.

Take `Cc1cccc(C(=O)Nc2ccc3c(c2)C[C@H](NCc2ccccc2)C3)c1-c1ccc(C(F)(F)F)cc1` [Example 27]: the IC50 is 0.012 µM in assay [2] (setting [3]) and 0.605 µM in assay [2] (setting [4]).

As for `O=C(Nc1ccc2c(c1)CCC2NCc1cccs1)c1ccccc1-c1ccc(C(F)(F)F)cc1` (stereo not shown) [Example 39], the values for the IC50 in assay [2] (setting [3]) and in assay [2] (setting [4]) were 0.686 µM and 3.72 µM, respectively.

`O=C(Nc1ccc2c(c1)CC(NS(=O)(=O)NC1CCCCC1)C2)c1ccccc1-c1ccc(C(F)(F)F)cc1` (stereo not shown) [Example 87]: the figures for the IC50 in assay [2] (setting [3]) and in assay [2] (setting [4]) were 2.07 µM and 2.58 µM, respectively.

For `O=C(Nc1ccc2c(c1)CC(NCc1ccccn1)C2)c1cccc(C(F)(F)F)c1-c1ccc(C(F)(F)F)cc1` (stereo not shown) [Example 47], the IC50 in assay [2] (TMHh12 cells, 1 nM small molecule Smo agonist, read-out: Gli_luc (1 nM Smo agonist) IC50) stood at 1.57 µM; in assay [2] (TMHh12 cells, 25 nM small molecule Smo agonist, read-out: Gli_luc (25 nM Smo agonist) IC50), 5.96 µM.

In the case of `COC(=O)C1(CNC2Cc3ccc(NC(=O)c4ccccc4-c4ccc(C(F)(F)F)cc4)cc3C2)CCCC1` (stereo not shown) [Example 42], in assay [2] (setting [3]), the IC50 was found to be 2.58 µM.

Take `O=C(Nc1ccc2c(c1)CC(NS(=O)(=O)c1ccc(F)cc1)C2)c1ccccc1-c1ccc(C(F)(F)F)cc1` (stereo not shown) [Example 99]: the IC50 in assay [2] (setting [3]) worked out at 1.05 µM.

For `Cc1cccc(C(=O)Nc2ccc3c(c2)CC(NCc2ccccc2)C3)c1-c1ccc(C(F)(F)F)cc1` (stereo not shown) [Example 55], the IC50 in assay [2] (setting [3]) stood at 0.091 µM; in assay [2] (setting [4]), 0.995 µM.

For `Cc1cccc(C(=O)Nc2ccc3c(c2)CC(NCc2nccs2)C3)c1-c1ccc(C(F)(F)F)cc1` (stereo not shown) [Example 72], the IC50 in assay [2] (setting [3]) came out at 0.038 µM; in assay [2] (setting [4]) it was 0.667 µM.

In the case of `Cc1cccc(C(=O)Nc2ccc3c(c2)C[C@@H](NS(=O)(=O)c2ccccn2)C3)c1-c1ccc(C(F)(F)F)cc1` [Example 101], the IC50 in assay [2] (setting [3]) was 0.904 µM; in assay [2] (setting [4]) it was 14.1 µM.

Turning to `CCOC(=O)NC1Cc2ccc(NC(=O)c3cccc(OC)c3-c3ccc(C(F)(F)F)cc3)cc2C1` (stereo not shown) [Example 83], the results for the IC50 in assay [2] (setting [3]) and in assay [2] (setting [4]) were 0.715 µM and 9.73 µM, respectively.

As to `Cc1cccc(C(=O)Nc2ccc3c(c2)C[C@@H](NCc2cncn2C)C3)c1-c1ccc(C(F)(F)F)cc1` [Example 16], the IC50 worked out at 0.592 µM in assay [2] (setting [3]) and 3.7 µM in assay [2] (setting [4]).

Take `O=C(COc1ccccc1)NC1Cc2ccc(NC(=O)c3ccccc3-c3ccc(C(F)(F)F)cc3)cc2C1` (stereo not shown) [Example 78]: in assay [2] (setting [3]), the IC50 is 1.89 µM.

Turning to `Cc1nc(CN[C@H]2Cc3ccc(NC(=O)c4cccc(C)c4-c4ccc(C(F)(F)F)cc4)cc3C2)cs1` [Example 9], the results for the IC50 in assay [2] (setting [3]) and in assay [2] (setting [4]) were 0.039 µM and 0.876 µM, respectively.

Consider `Cc1cccc(C(=O)Nc2ccc3c(c2)CC(NS(=O)(=O)c2cccs2)C3)c1-c1ccc(F)cc1` (stereo not shown) [Example 94], for which the IC50 in assay [2] (setting [3]) is 6.63 µM.

Turning to `O=C(Nc1ccc2c(c1)CC(NS(=O)(=O)c1cccs1)C2)c1cccc(F)c1-c1ccc(C(F)(F)F)cc1` (stereo not shown) [Example 91], the IC50 in assay [2] (setting [3]) amounted to 0.059 µM; in assay [2] (setting [4]) it was 16.3 µM.

Consider `O=C(Nc1ccc2c(c1)C[C@H](NS(=O)(=O)c1ccccc1)C2)c1ccccc1-c1ccc(C(F)(F)F)cc1` [Example 89], for which the IC50 in assay [2] (setting [3]) came to 0.202 µM.

Consider `O=C(Nc1ccc2c(c1)C[C@@H](NCc1ccccn1)C2)c1cccc(C(F)(F)F)c1-c1ccc(C(F)(F)F)cc1` [Example 46], for which the figures for the IC50 in assay [2] (setting [3]) and in assay [2] (setting [4]) were 0.831 µM and 3.85 µM, respectively.

On to `Cc1cc(C)c(-c2ccc(C(F)(F)F)cc2)c(C(=O)Nc2ccc3c(c2)CC(NCc2ccsc2)C3)c1` (stereo not shown) [Example 35], for which the IC50 in assay [1] was found to be 0.208 µM.

Regarding `Cc1cccc(C(=O)Nc2ccc3c(c2)C[C@@H](NCC2CCOC2)C3)c1-c1ccc(C(F)(F)F)cc1` (stereo partly shown) [Example 33], the figures for the IC50 in assay [2] (setting [3]) and in assay [2] (setting [4]) were 4.53 µM and 16.4 µM, respectively.

Consider `CCOC(=O)NC1Cc2ccc(NC(=O)c3ccccc3-c3ccc(C(F)(F)F)cc3)cc2C1` (stereo not shown) [Example 81], for which the IC50 in assay [2] (setting [3]) stood at 1.33 µM.

`O=C(Nc1ccc2c(c1)CC(NS(=O)(=O)c1ccccc1)C2)c1ccccc1-c1ccc(Cl)cc1` (stereo not shown) [Example 96]: in assay [2] (setting [3]), the IC50 amounted to 1.48 µM.

On to `COc1cccc(C(=O)Nc2ccc3c(c2)CC(NC(=O)c2ccccc2)C3)c1-c1ccc(C(F)(F)F)cc1` (stereo not shown) [Example 79], for which the half-inhibitory concentration (IC50) in assay [2] (setting [3]) was 1.33 µM.

As to `Cc1cccc(C(=O)Nc2ccc3c(c2)CC(NS(=O)(=O)c2ccc(Cl)cc2)C3)c1-c1ccc(C(F)(F)F)cc1` (stereo not shown) [Example 98], the IC50 in assay [2] (setting [3]) came out at 0.324 µM; in assay [2] (setting [4]), 24.4 µM.
